These are literature values, as cited in patent US9006292B2, “Metadichol® liquid and gel nanoparticle formulations” (NanoRx, Inc., priority 2013, dated 2015).

Read-outs that look alike come from different tables or passages of the source.

Data set [1] concerns P. falciparum.
For data set [2] the following is noted: topical, phase I trial of 14 patients.
For data set [3], the system named is RDW. The settings on record: 6 months.
In data set [4] the test system is Lp(a). Particulars: in vivo.

Consider `C=C1/C(=C\C=C2/CCC[C@]3(C)[C@@H]([C@H](C)CCCC(C)(C)O)CC[C@@H]23)C[C@@H](O)C[C@@H]1O` [1,25-dihydroxycholecalciferol], for which the “growth of P. falciparum in culture” value in data set [1] (low doses) is listed as “inhibitory”. Also, in data set [2], the “prevention of chemotherapy-induced alopecia” value is listed as “failed to show efficacy”.

With `C=C1/C(=C\C=C2/CCC[C@]3(C)[C@@H]([C@H](C)CCCC(C)C)CC[C@@H]23)C[C@@H](O)C[C@@H]1O` [1-hydroxy Vitamin D-3], in data set [1] (low doses), the “growth of P. falciparum in culture” value is “inhibitory”.

In the case of `C=C1CC[C@H](O)C/C1=C/C=C1\CCC[C@]2(C)[C@@H]([C@H](C)CCCC(C)(C)O)CC[C@@H]12` [25-hydroxy vitamin D3], the “growth of P. falciparum in culture” value in data set [1] (low doses) was “inhibitory”.

`COCCc1ccc(OCC(O)CNC(C)C)cc1` (stereo not drawn) [Metoprolol]: the RDW in data set [3] (100 mg/day, n=35, from 15.6) is given as 15.45.

`OC(CNCC(O)C1CCc2cc(F)ccc2O1)C1CCc2cc(F)ccc2O1` (stereo not drawn) [Nebivolol]: the RDW in data set [3] (5 mg/d, n=37, from 15.8) was 15.

Regarding `C=C1CC[C@H](O)C/C1=C/C=C1\CCC[C@]2(C)[C@@H]([C@H](C)/C=C/[C@H](C)C(C)C)CC[C@@H]12` [vitamin D-2], the “growth of P. falciparum in culture” value in data set [1] (higher levels) is on record as “inhibitory”.

For `C=C1CC[C@H](O)C/C1=C/C=C1\CCC[C@]2(C)[C@@H]([C@H](C)CCCC(C)C)CC[C@@H]12` [vitamin D-3], the “growth of P. falciparum in culture” value in data set [1] (higher levels) is on record as “inhibitory”.

For “Human growth hormone: Human growth hormone, cited as raising Lp(a)”, the “increase of Lp(a)” value in data set [4] is listed as “up to 120%”.
